The source made the active and inactive calls. The calls are words filed in the database; no cut-off is given here.
Assays:
HCT-116 = assay: Cytotoxicity against human HCT116 cells by MTT assay; type: functional, cell-based
[1] = Induction of apoptosis in human CLL cells by 3,3'-dihexyloxacarbocyanine iodide staining-based flow cytometry; type: functional, cell-based
B-CLL [2] = assay: Inhibition of spliceosome-mediated splicing of DNAJB1 gene in human B-CLL cells at 0.1 to 1.0 uM after 4 hrs by RT-PCR analysis; type: cell-based
B-CLL [3] = assay: Inhibition of spliceosome-mediated splicing of DNAJB1 gene in human B-CLL cells at 0.1 uM after 4 hrs by RT-PCR analysis; type: cell-based
B-CLL [4] = assay: Inhibition of spliceosome-mediated splicing of DNAJB1 gene in human B-CLL cells at 10 uM after 4 hrs by RT-PCR analysis; type: cell-based

| SMILES | IC50 (HCT-116) [nM] | IC50 [1] [nM] | further results |
| --- | --- | --- | --- |
| CC[C@H](O)[C@@H](C)[C@H]1O[C@@H]1C[C@H](C)/C=C/C=C(\C)[C@H]1OC(=O)CCCCCC/C=C/[C@@H]1C | > 50000 | – | – |
| CC[C@H](OC)[C@@H](C)[C@H]1O[C@@H]1[C@@H](O)[C@H](C)/C=C/C=C(\C)[C@H]1OC(=O)CCCCCC/C=C/[C@@H]1C | > 50000 | – | – |
| CC[C@H](OC)[C@@H](C)[C@H]1O[C@@H]1[C@@H](O)[C@H](C)/C=C/C=C(\C)[C@H]1OC(=O)C[C@H](O)CCCC/C=C/[C@@H]1C | > 50000 | – | – |
| CC[C@H](OC)[C@@H](C)[C@H]1O[C@@H]1[C@@H](O)[C@@H](C)/C=C/C=C(\C)[C@H]1OC(=O)C[C@H](O)CC[C@@](C)(O)[C@@H](OC(C)=O)/C=C/[C@@H]1C | 23 | > 50000 | – |
| CC[C@H](OC)[C@@H](C)[C@H]1O[C@@H]1[C@H](OC(C)=O)[C@H](C)/C=C/C=C(\C)[C@H]1OC(=O)C[C@H](O)CC[C@@](C)(O)[C@@H](OC(C)=O)/C=C/[C@@H]1C | 142 | – | – |
| CC[C@H](O)[C@@H](C)[C@H]1O[C@@H]1C[C@H](C)/C=C/C=C(\C)[C@H]1OC(=O)CCCCCC/C=C/[C@H]1C | > 50000 | – | – |
| CC[C@H](OC)[C@@H](C)[C@H]1C[C@@H]1[C@@H](O)[C@H](C)/C=C/C=C(\C)[C@H]1OC(=O)C[C@H](O)CC[C@@](C)(O)[C@@H](OC(C)=O)/C=C/[C@@H]1C | 42.9 | 103 | Activity (B-CLL [2]): Active; Activity (B-CLL [3]): Active |
| CC[C@H](O)[C@@H](C)[C@H]1O[C@@H]1C[C@H](C)/C=C/C=C(\C)[C@H]1OC(=O)C[C@H](O)CC[C@@](C)(O)[C@@H](OC(C)=O)CC[C@@H]1C [PLADIENOLIDE B] | 24.8 | 30.5 | Activity (B-CLL [3]): Active |
| CC[C@H](OC)[C@@H](C)[C@H]1O[C@@H]1[C@@H](O)[C@H](C)/C=C/C=C(\C)[C@H]1OC(=O)C[C@H](O)CC[C@@](C)(O)[C@@H](OC(C)=O)/C=C/[C@@H]1C | 0.8 | – | – |
| CC[C@H](OC)[C@@H](C)[C@H]1O[C@@H]1[C@H](O)[C@H](C)/C=C/C=C(\C)[C@H]1OC(=O)C[C@H](O)CC[C@@](C)(O)[C@@H](OC(C)=O)/C=C/[C@@H]1C | 23.5 | 2.1 | Activity (B-CLL [3]): Active |
| CC[C@H](OC)[C@@H](C)[C@H]1O[C@@H]1[C@H](O)[C@@H](C)/C=C/C=C(\C)[C@H]1OC(=O)C[C@H](O)CC[C@@](C)(O)[C@@H](OC(C)=O)/C=C/[C@@H]1C | 3.7 | 109 | – |
| Nc1nc(F)nc2c1ncn2[C@@H]1O[C@H](CO)[C@@H](O)[C@@H]1O | – | – | Activity (B-CLL [4]): inactive |
| CC[C@H](OC)[C@@H](C)[C@H]1C[C@@H]1[C@@H](O)[C@@H](C)/C=C/C=C(\C)[C@H]1OC(=O)C[C@H](O)CC[C@@](C)(O)[C@@H](OC(C)=O)/C=C/[C@@H]1C | 82.3 | – | – |
| CC[C@H](OC)[C@@H](C)[C@H]1O[C@@H]1[C@H](OC(C)=O)[C@H](C)/C=C/C=C(\C)[C@H]1OC(=O)C[C@H](OC(C)=O)CC[C@@](C)(O)[C@@H](OC(C)=O)/C=C/[C@@H]1C | 542 | – | – |
